Test results from ChEMBL document CHEMBL1201862, “PubChem BioAssay data set” (2004).
Active and inactive are the calls of the source.

Experiments:
[1] = test system: Streptococcus sp. 'group A'; assay: growth inhibition of control SK(-) GAS strain, dose response, counter-screen for streptokinase expression inhibitor project, luminescence, kanamycin, BacTiterGlo, confirmation (AID 1900); type: functional, organism-based
[2] = inhibitors of intracellular T. cruzi replication, confirmation, NIH3T3 host cells, beta-gal luminescence (AID 2044); type: functional, cell-based;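 note: intracellular parasites grown in NIH/3T3 mouse fibroblasts as host cells; luminescent beta-galactosidase reporter signal from transgenic T. cruzi replicating inside host cells; inhibitors lower the luminescence signal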
[3] = cytotoxicity toward NIH3T3 fibroblasts, dose response, counter-screen, cell-based, ATP luminescence, mouse fibroblasts (AID 2010); type: functional;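 note: cells exposed to compound for about 90 hours before reading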
[4] = test system: Streptococcus; assay: Group A Streptococcus viability loss, dose response, counter-screen for streptokinase expression inhibitor project, luminescence, BacTiterGlo (AID 1915); type: functional, organism-based;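 note: potency for reduction of bacterial viability or growth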
[5] = target: Cytochrome P450 2C19 (Homo sapiens, UniProt P33261); assay: Cytochrome panel assay with activity outcomes. Panel member name: p450-cyp2c19 Compounds with AC50 equal or less than 10 uM are considered active; type: functional
[6] = target: T1, Streptokinase A (Streptococcus pyogenes serotype M1, UniProt P10520); assay: S. pyogenes streptokinase expression inhibitors, potency, dose response, plasminogen activation absorbance, OD405 (AID 1914); type: functional, Streptococcus pyogenes M1 GAS;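 note: secreted streptokinase activity via plasminogen activation per viability signal from cell pellet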
T1 sequence (P10520 whole entry): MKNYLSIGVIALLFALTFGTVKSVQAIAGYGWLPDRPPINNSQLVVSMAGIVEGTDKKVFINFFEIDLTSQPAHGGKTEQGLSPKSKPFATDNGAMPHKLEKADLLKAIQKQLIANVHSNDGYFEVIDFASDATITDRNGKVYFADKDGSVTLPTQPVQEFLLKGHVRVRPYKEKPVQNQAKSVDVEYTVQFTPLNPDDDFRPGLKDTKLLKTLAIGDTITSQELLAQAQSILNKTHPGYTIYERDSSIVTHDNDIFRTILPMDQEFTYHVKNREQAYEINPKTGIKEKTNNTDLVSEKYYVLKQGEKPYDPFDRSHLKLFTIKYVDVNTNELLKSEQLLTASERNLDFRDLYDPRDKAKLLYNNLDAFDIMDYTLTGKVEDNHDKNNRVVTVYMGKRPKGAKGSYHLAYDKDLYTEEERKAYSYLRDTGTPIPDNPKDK

[7] = target: T2, Replicative DNA helicase DnaB (Mycobacterium tuberculosis, UniProt P9WMR3); assay: DnaB intein splicing inhibitors, dose response, biochemical, cell-free fluorescence (AID 449749); type: functional
T2 sequence (P9WMR3 whole entry): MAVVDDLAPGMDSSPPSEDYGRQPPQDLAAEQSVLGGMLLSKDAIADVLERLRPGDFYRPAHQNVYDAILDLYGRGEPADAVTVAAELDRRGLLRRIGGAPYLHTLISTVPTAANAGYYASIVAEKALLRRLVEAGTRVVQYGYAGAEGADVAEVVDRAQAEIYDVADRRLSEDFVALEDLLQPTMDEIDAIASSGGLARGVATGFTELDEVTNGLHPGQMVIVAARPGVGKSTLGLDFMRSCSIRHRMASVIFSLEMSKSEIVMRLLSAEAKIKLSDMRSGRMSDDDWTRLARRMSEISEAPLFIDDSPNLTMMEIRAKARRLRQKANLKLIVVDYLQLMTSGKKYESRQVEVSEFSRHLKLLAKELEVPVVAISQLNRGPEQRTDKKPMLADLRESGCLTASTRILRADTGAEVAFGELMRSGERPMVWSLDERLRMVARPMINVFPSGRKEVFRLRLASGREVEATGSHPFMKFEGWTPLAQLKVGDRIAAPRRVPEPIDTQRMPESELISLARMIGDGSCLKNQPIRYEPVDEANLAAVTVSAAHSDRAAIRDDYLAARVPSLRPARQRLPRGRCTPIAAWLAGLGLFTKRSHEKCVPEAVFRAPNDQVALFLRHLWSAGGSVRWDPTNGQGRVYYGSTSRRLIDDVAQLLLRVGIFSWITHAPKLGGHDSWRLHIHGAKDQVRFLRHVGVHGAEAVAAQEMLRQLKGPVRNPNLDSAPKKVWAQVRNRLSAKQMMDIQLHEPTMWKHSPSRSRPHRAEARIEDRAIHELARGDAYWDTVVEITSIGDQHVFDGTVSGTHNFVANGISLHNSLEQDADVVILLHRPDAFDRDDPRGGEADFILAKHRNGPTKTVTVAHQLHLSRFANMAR

[8] = target: T3, Protein RecA (Mycobacterium tuberculosis, UniProt P9WHJ3); assay: Fluorescence Cell-Free Homogeneous Dose Retest to Identify Inhibitors of RecA-Intein Splicing Activity. [Related pubchem assays (depositor defined):AID2097, AID2223, AID489010, AID492950]; type: functional
T3 sequence (P9WHJ3 whole entry): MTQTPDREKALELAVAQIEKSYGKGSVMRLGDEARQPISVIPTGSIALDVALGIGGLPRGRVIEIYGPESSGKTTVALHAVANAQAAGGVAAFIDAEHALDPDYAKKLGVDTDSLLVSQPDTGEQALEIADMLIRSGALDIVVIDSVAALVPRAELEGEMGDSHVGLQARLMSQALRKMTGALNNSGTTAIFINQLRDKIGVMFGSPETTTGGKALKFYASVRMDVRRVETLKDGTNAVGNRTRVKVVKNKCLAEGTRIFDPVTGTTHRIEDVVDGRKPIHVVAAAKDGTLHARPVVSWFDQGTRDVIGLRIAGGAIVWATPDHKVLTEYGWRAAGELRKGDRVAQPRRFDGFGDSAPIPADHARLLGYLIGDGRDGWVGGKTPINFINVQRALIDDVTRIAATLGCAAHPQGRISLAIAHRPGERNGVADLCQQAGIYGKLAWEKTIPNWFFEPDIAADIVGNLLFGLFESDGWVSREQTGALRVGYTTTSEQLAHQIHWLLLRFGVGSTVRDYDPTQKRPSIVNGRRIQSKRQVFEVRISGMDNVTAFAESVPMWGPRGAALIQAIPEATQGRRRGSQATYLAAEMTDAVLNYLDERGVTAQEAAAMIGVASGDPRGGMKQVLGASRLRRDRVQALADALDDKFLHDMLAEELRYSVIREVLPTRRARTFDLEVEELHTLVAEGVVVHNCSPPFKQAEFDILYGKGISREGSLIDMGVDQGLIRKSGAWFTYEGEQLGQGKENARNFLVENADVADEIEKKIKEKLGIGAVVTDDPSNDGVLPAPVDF

Cytochrome P450 2C19, sequence (P33261 whole entry): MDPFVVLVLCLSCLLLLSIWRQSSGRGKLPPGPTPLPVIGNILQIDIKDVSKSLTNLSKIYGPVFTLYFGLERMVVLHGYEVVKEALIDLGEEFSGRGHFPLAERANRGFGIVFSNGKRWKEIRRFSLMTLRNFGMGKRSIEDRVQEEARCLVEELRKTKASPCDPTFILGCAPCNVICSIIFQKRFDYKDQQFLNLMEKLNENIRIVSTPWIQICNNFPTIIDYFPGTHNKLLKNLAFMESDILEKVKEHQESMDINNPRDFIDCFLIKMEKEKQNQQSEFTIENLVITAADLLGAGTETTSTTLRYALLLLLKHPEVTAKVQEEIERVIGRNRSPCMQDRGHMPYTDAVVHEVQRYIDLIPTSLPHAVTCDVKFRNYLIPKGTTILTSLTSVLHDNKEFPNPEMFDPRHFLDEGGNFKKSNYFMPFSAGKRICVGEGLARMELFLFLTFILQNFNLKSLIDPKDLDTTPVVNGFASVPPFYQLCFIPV

Q: For `Cc1ccc(C(=O)Nc2nc(-c3ccccc3)c(-c3ccccc3)o2)cc1`, which EC50 [1] is on record?
A: 1.27 µM (active)

Q: And the EC50 [2]?
A: 2.48 µM (active)

Q: What about the EC50 [3] of the same molecule?
A: > 60 µM (not active)

Q: What about the EC50 [4] of the same molecule?
A: 2.36 µM (active)

Q: For `CN(CCOc1ccccc1)CC(=O)Nc1ccc(S(=O)(=O)N2CCCC2)cc1`, which EC50 [2] is on record?
A: 0.695 µM (active)

Q: What about the EC50 [3] of the same molecule?
A: > 60 µM (not active)

Q: For `CC[C@H]1C2=C3C(CC[C@H]4C(OCc5ccc(F)cc5C(F)(F)F)OC[C@](C)([C@@H]34)N(C(=O)OC(C)(C)C)C2)C2COC(=O)OCC21` (stereo partly drawn), which AC50 ([5]; read-out: AC50) is on record?
A: 39.8 µM (inconclusive)

Q: Which AC50 ([5]; read-out: AC50) does the source give for `COC(=O)N1CCC2(CCN(C(=O)Nc3cccc(F)c3)CC2)CC1` here?
A: 5.01 µM (inconclusive)

Q: For `COC(=O)NCC(c1cccnc1)N1CCN(c2ccccc2OC)CC1` (stereo not drawn), which AC50 ([5]; read-out: AC50) is on record?
A: 11.2 µM (inconclusive)

Q: With `Cc1ccc(S(=O)(=O)NCc2cccc([N+](=O)[O-])c2)cc1` as the molecule, how does the AC50 ([5]; read-out: AC50) read?
A: 2.51 µM (inconclusive)

Q: With `Cn1c(=O)c2nc(CCCCc3nc4c(=O)n(C)c(=S)n(C)c4[nH]3)[nH]c2n(C)c1=S` as the molecule, how does the AC50 [5] read?
A: inconclusive

Q: With `CCOc1ccc2oc(C(=O)NC3CCN(Cc4ccccc4)CC3)c(C)c2c1` as the molecule, how does the EC50 [2] read?
A: 2 µM (active)

Q: And the EC50 [3]?
A: > 60 µM (not active)

Q: Which results are given for `CCCCN(CCCC)c1cc(C)nc(-c2ccccc2O)n1`?
A: EC50 [1]: 19.7 µM (active); EC50 [6]: 5.4 µM (active); EC50 [4]: > 150 µM (not active)

Q: For `CN(C)CCCOc1ccc(Cl)cc1Br`, which EC50 [2] is on record?
A: 0.535 µM (active)

Q: What about the EC50 [3] of the same molecule?
A: > 60 µM (not active)

Q: For `COc1cccc(C(Nc2ccccn2)c2c(NC(=O)c3ccco3)sc(C)c2C)c1` (stereo not drawn), which EC50 [2] is on record?
A: 2.53 µM (active)

Q: And the EC50 [3]?
A: > 60 µM (not active)

Q: For `Cc1ccccc1N1CCN(S(=O)(=O)c2nnc(NC(=O)c3ccco3)s2)CC1`, which EC50 [1] is on record?
A: 11 µM (active)

Q: And the EC50 [6]?
A: 5.16 µM (active)

Q: What about the EC50 [4] of the same molecule?
A: 41.7 µM (active)

Q: Which EC50 [2] does the source give for `Cc1cc(Cl)c(OCCOCCN2CCCC(C)C2)c(Br)c1` (stereo not drawn) here?
A: 0.393 µM (active)

Q: And the EC50 [3]?
A: > 60 µM (not active)

Q: With `Cc1cc(C)n2nc(SCC(=O)N/N=C/c3ccccc3F)nc2n1` as the molecule, how does the AC50 ([5]; read-out: AC50) read?
A: 20 µM (inconclusive)

Q: For `CN(C)CCCNC(=O)c1cc2c3ccccc3n(C)c2s1`, which EC50 [2] is on record?
A: 0.136 µM (active)

Q: What about the EC50 [3] of the same molecule?
A: > 60 µM (not active)

Q: For `O=C(O)CC/C(=C\c1cc2c(cc1Br)OCO2)c1nc2ccccc2s1`, which EC50 [1] is on record?
A: 5.71 µM (active)

Q: And the EC50 [6]?
A: 56 µM (active)

Q: What about the EC50 [4] of the same molecule?
A: > 150 µM (not active)

Q: What does the source list for `CC(C)C(NC(=O)C(c1ccccc1)c1ccccc1)c1nc2ccccc2[nH]1` (stereo not drawn)?
A: EC50 [1]: 1.87 µM (active); EC50 [6]: > 150 µM (not active); EC50 [4]: 16 µM (active)

Q: For `O=c1oc(-c2ccccc2Cl)nc2ccsc12`, which AC50 [7] is on record?
A: 14 µM (active)

Q: What about the EC50 [8] of the same molecule?
A: 23.3 µM (active)

Q: For `Cc1c(C(=O)N2CCN(S(=O)(=O)c3ccc(F)cc3)CC2)oc2ccccc12`, which EC50 [2] is on record?
A: 0.447 µM (active)

Q: What about the EC50 [3] of the same molecule?
A: > 60 µM (not active)

Q: With `Cc1c(C(=O)NN)nn(-c2ccc(Cl)cc2)c(=O)c1C#N` as the molecule, how does the AC50 [7] read?
A: 79.8 µM (active)

Q: What about the EC50 [8] of the same molecule?
A: 8.06 µM (active)

Q: What does the source list for `CC1(C)S[C@@H]2[C@H](NC(=O)C(NC(=O)N3CCNC3=O)c3ccccc3)C(=O)N2[C@H]1C(=O)O` (stereo partly drawn)?
A: EC50 [1]: < 0.06 µM (active); EC50 [4]: < 0.06 µM (active)

Q: With `CCCC[C@@H]1C[C@H]1C(NC(=O)c1cccs1)c1ccc(C(F)(F)F)cc1` (stereo partly drawn) as the molecule, how does the AC50 [5] read?
A: inconclusive
